Source: patent US11535606B2, “Substituted quinoline-8-carbonitrile derivatives with androgen receptor degradation activity and uses thereof” (ACCUTAR BIOTECHNOLOGY INC., priority 2019, dated 2022)
Numbering of substitutions follows the chain as printed.

Key:
Assay type in all cases: cell-based
Conditions in all cases: 24 hours after administration, DC50 = concentration needed for 50% target protein degradation
[1] = test system: androgen receptor (AR); assay: AR degradation activity in 22Rv1 cells (Western blot)
Experimental: (§1) LNCAP, VCAP and 22Rv1 cells were plated in 24-well plates at 1.5×10E5 cells/well in the RPMI growth medium containing 10% FBS and 1% Penicillin Streptomycin, and then incubated at 37° C. overnight. The following day, the test compound was administered to the cells by using 1000× compound stock solution prepared in DMSO at various concentrations. After administration of the compound, the cells were then incubated at 37° C. for 24 hours. Upon completion, the cells were washed with PBS and protein was collected in Laemmli sample buffer (1×; VWR International). Proteins in cell lysate were separated by SDS-PAGE and transferred to Odyssey nitrocellulose membranes (Licor) with Iblot® dry blotting transfer system (ThermoFisher). Nonspecific binding was blocked by incubating membranes with Intercept Blocking Buffer (Licor) for 1 hour at room temperature with gentle shaking. The membranes were then incubated overnight at 4° C. with Primary antibodies rabbit anti-AR (1:1,000, Cell Signaling, 5153) and mouse anti-GAPDH (1:5,000, Santa Cruz Biotechnology, sc-47724) diluted in Intercept Blocking Buffer containing 0.1% Tween 20. After washing 3 times with TBS-T, the membranes were incubated with IRDye® 800CW goat anti-mouse IgG (1:20,000, Licor) or IRDye® 800CW goat anti-rabbit IgG (1:20,000, Licor) for 1 hour. After TBS-T washes, membranes were rinsed in TBS and scanned on Odyssey® CLx Imaging System (Licor). The bands were quantified using Image Studio™ Software (Licor).
(§2) Table 4 summarizes the androgen receptor (AR) degradative activity of exemplary compounds in LNCAP, VCAP and 22Rv1 cell lines 24 hours after administration. DC50: compound concentration needed for 50% target protein degradation.

[2] = molecular target: T1, androgen receptor (AR) (Homo sapiens, UniProt P10275, T878A); assay: AR degradation activity in LNCAP cells (Western blot)
T1 construct: endogenous in cells; host or cells: LNCAP
T1 sequence (P10275 1-920 T878A): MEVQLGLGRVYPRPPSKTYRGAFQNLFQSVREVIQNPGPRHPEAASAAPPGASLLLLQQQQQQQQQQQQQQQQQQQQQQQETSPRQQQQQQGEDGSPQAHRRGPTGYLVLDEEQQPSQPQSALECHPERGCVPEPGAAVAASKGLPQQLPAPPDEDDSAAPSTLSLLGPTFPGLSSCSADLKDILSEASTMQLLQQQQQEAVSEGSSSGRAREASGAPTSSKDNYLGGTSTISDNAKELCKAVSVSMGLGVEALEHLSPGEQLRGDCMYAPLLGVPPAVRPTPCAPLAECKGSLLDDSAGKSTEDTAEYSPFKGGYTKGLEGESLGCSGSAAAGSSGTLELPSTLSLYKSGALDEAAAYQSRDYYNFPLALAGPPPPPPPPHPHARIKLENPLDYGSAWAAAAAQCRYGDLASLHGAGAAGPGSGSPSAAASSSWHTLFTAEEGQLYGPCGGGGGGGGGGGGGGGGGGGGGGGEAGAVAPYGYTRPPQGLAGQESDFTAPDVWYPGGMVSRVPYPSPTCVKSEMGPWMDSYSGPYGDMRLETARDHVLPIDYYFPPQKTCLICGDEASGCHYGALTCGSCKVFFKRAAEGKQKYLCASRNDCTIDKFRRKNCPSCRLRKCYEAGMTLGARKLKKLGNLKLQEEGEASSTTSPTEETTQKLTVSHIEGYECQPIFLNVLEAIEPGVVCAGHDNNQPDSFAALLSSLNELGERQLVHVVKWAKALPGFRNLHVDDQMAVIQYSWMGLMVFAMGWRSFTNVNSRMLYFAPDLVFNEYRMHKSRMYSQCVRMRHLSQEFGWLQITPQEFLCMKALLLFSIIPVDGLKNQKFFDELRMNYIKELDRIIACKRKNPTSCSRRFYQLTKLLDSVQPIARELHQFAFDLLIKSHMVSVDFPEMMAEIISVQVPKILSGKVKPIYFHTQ
Experimental: as §1, §2

[3] = molecular target: T2, androgen receptor (AR) (Homo sapiens, UniProt P10275); assay: AR degradation activity in VCAP cells (Western blot)
T2 construct: endogenous in cells; host or cells: VCAP
T2 sequence (P10275 1-920): T1 sequence (P10275 1-920 T878A) with A878T
Experimental: as §1, §2

Measured: DC50

N#Cc1ccc(O[C@H]2CC[C@H](NC(=O)c3ccc(N4CCC(CN5CCN(c6ccc7c(c6)CN([C@H]6CCC(=O)NC6=O)C7=O)CC5)CC4)nc3)CC2)c2cccnc12 [Compound 3-29, trans-N-(4-((8-cyanoquinolin-5-yl)oxy)cyclohexyl)-6-(4-((4-(2-((S)-2,6-dioxopiperidin-3-yl)-1-oxoisoindolin-5-yl)piperazin-1-yl)methyl)piperidin-1-yl)nicotinamide]
< 10 nM: all assays above

N#Cc1ccc(OC2CCC(NC(=O)c3ccc(N4CCC(CN5CCN(c6cc7c(cc6F)C(=O)N(C6CCC(=O)NC6=O)C7=O)CC5)CC4)nn3)CC2)c2cccnc12 (stereo not drawn) [Compound 3-36]
< 10 nM: all assays above

N#Cc1ccc(O[C@H]2CC[C@H](NC(=O)c3ccc(N4CCC(CN5CCN(c6ccc7c(c6)CN([C@H]6CCC(=O)NC6=O)C7=O)CC5)CC4)c(F)c3)CC2)c2cccnc12 [Compound 3-31, trans-N-(4-((8-cyanoquinolin-5-yl)oxy)cyclohexyl)-4-(4-((4-(2-((S)-2,6-dioxopiperidin-3-yl)-1-oxoisoindolin-5-yl)piperazin-1-yl)methyl)piperidin-1-yl)-3-fluorobenzamide]
< 10 nM: all assays above
